Data from US20080221203A1, “Use of Agonists and Antagonists of Beta Adrenoceptors for Treating Arterial Disease” (UNIVERSITY CATHOLIQUE DE LOUVAIN, priority 2004, published 2008).
Entries after “also recorded” stand apart in the source; their conditions may differ. Like-named read-outs stand apart in the source and are kept apart here. No end group written: not given here.

How the values were obtained:
[1] = system: human coronary microarteries; experiment: Videomicroscopy of relaxation of pre-constricted, pressurized human coronary microarteries; type: cell-based; conditions: for relaxation, % of the maximum ET-1-evoked contraction: agonist alone; for relaxation in the presence of bupranolol: beta1-2-3 antagonist bupranolol; for relaxation, % of the maximum ET-1-evoked contraction, in the presence of nadolol: pre-treatment with beta1-2 antagonist nadolol; for relaxation of vessels without functional endothelium, % of the maximum KCl-evoked contraction: de-endothelialized / endothelium destroyed microarteries; for relaxation of de-endothelialized vessels in the presence of nadolol: de-endothelialized microarteries; for relaxation, % of the maximum KCl-evoked contraction: pre-constricted with high (50 mmol/L) KCl, functional endothelium
Protocol: Vessels were cannulated with dual glass micropipettes and secured with 10-0 nylon monofilament sutures in a Plexiglas isolated organ chamber circulated with oxygenated PSS (37° C.) and placed on an inverted microscope (Axiovert S100, Zeiss, Germany) connected to a CCD camera. Microvessels were pressurized with a PSS-filled burette manometer at 60 mmHg (a pressure chosen to avoid stretch-dependent effects typically manifested at higher pressures) in a no-flow state. Digitized imaging (IONOPTIX Corporation, Milton, Mass.) allowed continuous monitoring of vessel external diameter. All experiments were carried out in the presence of cyclooxygenase inhibitor (indomethacin, 10 μmol/L). After 30-45 min equilibration, vessels were contracted with high KCl solution (PSS, 50 mmol/L KCl replacing NaCl stoechiometrically). At the maximum of contraction, vasorelaxation with Substance P (100 nmol/L) was systematically tested to assess the presence of a functional endothelium. In some experiments, the endothelium was selectively destroyed by an air bolus. All reagents were added in the bathing solution.

[2] = system: human beta3 AR; experiment: Akt and eNOS phosphorylation in neonatal cardiac myocytes with adenoviral expression of human beta3 AR; type: cell-based, mouse; conditions: agonist-mediated activation, Isoproterenol+nadolol; myocytes from C57BI6 control and cardiac eNOS transgene mice
[3] = system: human coronary microarteries; experiment: Measurement of smooth muscle membrane potential of isolated human coronary microvessels; type: cell-based; conditions: in the presence of NO synthase and cyclooxygenase inhibition
Protocol: Human right atrial and left ventricular tissue specimens obtained from patients undergoing cardiac surgery were placed in physiological saline solution (PSS) containing (mmol/L): NaCl, 120; KCl, 5.9; NaHCO3, 25; dextrose, 17.5; CaCl2, 2.5; MgCl2, 1.2; NaH2PO4, 1.2 (pH 7.4) maintained at 0-4° C., and carefully dissected to isolate microarteries. Coronary microarteries (70-170 μm diameter, 1-2 mm length), rapidly cleaned of adherent connective tissue were either kept at −80° C. until homogenization or used for functional experiments.
Microvessels were mounted in an organ bath continuously circulated (6 mL/min) with oxygenated PSS at 37° C. All experiments were performed in the presence of a NO synthase inhibitor (L-w-nitroarginine, 100 μmol/L) and indomethacin (10 μmol/L). After 60 minutes of equilibration, measurement of the smooth muscle membrane potential (Em) was made with a glass microelectrode (Clark, Electromedical instruments, type GC 120F-15) filled with 1.5M KCl. The input resistance of the microelectrodes varied between 50 and 80 MΩ. Differences in electric potential were measured with a Dagan amplifier (8100, Minneapolis, Minn., U.S.A.) and recorded. Criteria for a successful impalement were (1) an abrupt drop in voltage on entry of microelectrode into the cell, (2) stable membrane potential for at least 2 min, and (3) a sharp return to zero on withdrawal of the electrode.

[4] = system: aortic rings; experiment: Mouse aortic ring angiogenesis (new tubes formation); type: cell-based; conditions: for angiogenic response in beta3 adrenoceptor deficient rings: aortic rings from beta 3-KO mice
[5] = system: cultured endothelial cells; experiment: Calcium transients (Ca fluorescence) in cultured endothelial cells; type: cell-based; conditions: for Ca signal increase after pre-treatment with nadolol: beta1-2 antagonist nadolol; for Ca signal increase after pre-treatment with bupranolol: combined beta1-2-3 antagonist bupranolol; for increase of Ca fluorescence: endothelial cells, compound alone
Protocol: (§1) Human and rat cardiac coronary resistance microarteries (70-170μ diameter) were mounted in dual glass micropipettes chambers in no-flow state and constant pressure for vasomotion analysis by videomicroscopy. In addition, calcium transients and NO release were measured in cultured endothelial cells with an amperometric electrode and Fura-2 fluorescence, respectively. Phosphorylation of eNOS was measured in the same cells with phospho-specific antibodies.

[6] = system: eNOS; experiment: eNOS Threonine 495 phosphorylation in cultured endothelial cells (phospho-specific antibodies); type: cell-based
Protocol: as §1

[7] = system: rat coronary microvessels; experiment: Videomicroscopy of relaxation of rat coronary microvessels; type: cell-based; conditions: for max relaxation, % of PGF2alpha pre-contracted tone: at 10 μM
Protocol: as §1

[8] = system: coronary microarteries from mice deficient for the beta3-adrenoceptor; experiment: Relaxation of coronary microarteries from mice deficient for the beta3-adrenoceptor; type: cell-based, mouse
Protocol: as §1, with “antibodies. […] Relaxation to Nebivolol was blunted in coronary microarteries from mice deficient for the beta3-adrenoceptor (C).” for “antibodies.”

[9] = system: cultured endothelial cells; experiment: NO release in cultured endothelial cells; type: cell-based; conditions: for NO release in the presence of L-NAME: 10 μM; for NO release: at 10 μM
Protocol: as §1

[10] = ET-1 pre-constricted, intact endothelium
[11] = ET-1 pre-constricted, intact endothelium, listed as isoproterenol
[12] = ET-1 pre-constricted, intact endothelium, listed as BRL 37344
[13] = rat microvessels, listed as Nebivolol

With `CC(C)NCC(O)c1ccc(O)c(O)c1` (stereo not drawn) [isoprenaline] the “relaxation, % of the maximum ET-1-evoked contraction” value [1, 10] was about 50%, the “relaxation, % of the maximum ET-1-evoked contraction” value [1, 11] was “by half” and the “relaxation in the presence of bupranolol” value [1, 10] was “blocked; also recorded: abolished”. The “relaxation in the presence of bupranolol” value [1, 11] was “fully abrogated”, the “relaxation, % of the maximum ET-1-evoked contraction, in the presence of nadolol” value (from here on “relaxation, % … of nadolol”) [1, 10] was “insensitive; also recorded: resistant” and the “relaxation, % … of nadolol” value [1, 11] was “unaffected”. For the same compound, the “relaxation of vessels without functional endothelium, % of the maximum KCl-evoked contraction” value [1] was 21.0±6.3%, the “relaxation of de-endothelialized vessels in the presence of nadolol” value ([1]; nadolol, listed as Iso) was “abrogated” and the “relaxation of de-endothelialized vessels in the presence of nadolol” value ([1]; nadolol, listed as isoproterenol) was 1.4±0.5%. For the same compound, the “phosphorylation of Akt and downstream eNOS” value [2] was “increased phosphorylation of Akt and downstream eNOS”.
For `NC[C@H](O)c1ccc(O)c(O)c1` [norepinephrine], the “relaxation, % of ET-1 contraction” value ([1]; 1 micromol/l, intact endothelium, pretreated with nadolol and phentolamine) was 41.4±7%.
In the case of `C[C@H](Cc1ccc(OCC(=O)O)cc1)NC[C@H](O)c1cccc(Cl)c1` [BRL37344], the “smooth muscle membrane potential” value [3] is reported as “significant hyperpolarization”, the “relaxation of ET-1 preconstricted vessels under NO synthase inhibition” value ([1]; ET-1 pre-constricted, L-w-nitroarginine) is reported as “unaffected” and the “relaxation, % of the maximum ET-1-evoked contraction” value [1, 10] is reported as about 50%. For the same compound, the “relaxation, % of the maximum ET-1-evoked contraction” value [1, 12] was 52.3±13.2%, the “relaxation in the presence of bupranolol” value [1, 10] was “blocked; also recorded: abolished” and the “relaxation in the presence of bupranolol” value [1, 12] was “fully abrogated”. The “relaxation, % … of nadolol” value [1, 10] was “insensitive; also recorded: resistant”, the “relaxation, % … of nadolol” value [1, 12] was 54.9±16.8% and the “max relaxation, % of ET-1 pre-contracted tone” value ([1]; Example 2, nebivolol at 10 μM) was “reproduced”. The “relaxation of KCl-preconstricted vessels under NO synthase inhibition” value ([1]; KCl pre-constricted, L-w-nitroarginine 100 μmol/L) was “totally abrogated”, the “relaxation of vessels without functional endothelium, % of the maximum KCl-evoked contraction” value [1] was “absent; also recorded: not observed; also recorded: failed to relax” and the “relaxation, % of the maximum KCl-evoked contraction” value [1] was 15.5%. For the same compound, the “relaxation, % of the maximum KCl-evoked contraction” value ([1]; listed as BRL 37344) was 15.5±5.3%.
With “Substance P: endothelium-specific agonist (RPKPQQFFGLM; ends and bridges not checked; UniProt P20366 58-68, looked up)” the “relaxation of vessels without functional endothelium, % of the maximum KCl-evoked contraction” value [1] was “absence of relaxation”.
With VEGF the “angiogenic response in beta3 adrenoceptor deficient rings” value [4] was “angiogenic response”.
`OC(CNCC(O)C1CCc2cc(F)ccc2O1)C1CCc2cc(F)ccc2O1` (stereo not drawn) [nebivolol] was tested, and the “Ca signal increase after pre-treatment with nadolol” value [5] was “no effect”, the “Ca signal increase after pre-treatment with nadolol” value ([5]; listed as Nebivolol) was “unchanged” and the “Ca signal increase after pre-treatment with bupranolol” value [5] was “significantly blunted”. The “Ca signal increase after pre-treatment with bupranolol” value ([5]; listed as Nebivolol) was “sensitive to bupranolol”, the “increase of Ca fluorescence” value [5] was 91.8±23.7% and the “increase of Ca fluorescence” value ([5]; listed as Nebivolol) was “cytosolic calcium increase”. The “phosphorylation of Threonine 495 on eNOS” value [6] was “dephosphorylated”, the “phosphorylation of Threonine 495 on eNOS” value ([6]; listed as Nebivolol) was “time-dependent dephosphorylation” and the “max relaxation, % of PGF2alpha pre-contracted tone” value [7] was “dose-dependent-relaxation”. The “max relaxation, % of PGF2alpha pre-contracted tone” value ([7]; listed as Nebivolol) was 86±6%, the “relaxation under NOS inhibition” value ([7]; rat microvessels, NOS inhibition) was “sensitive to NOS inhibition” and the “relaxation in the presence of bupranolol” value ([7]; rat microvessels) was “sensitive to bupranolol”. For the same compound, the “relaxation in the presence of bupranolol” value [7, 13] was “prevented”, the “relaxation in the presence of nadolol” value ([7]; rat microvessels) was “not to nadolol” and the “relaxation in the presence of nadolol” value [7, 13] was “unaffected”. The “dependence of relaxation on endothelium (Example 2)” value ([1]; human coronary microvessels) was “dependent on a functional endothelium”, the “relaxation under NOS inhibition (Example 2)” value ([1]; human coronary microvessels, NOS inhibition) was “sensitive to NOS inhibition” and the “relaxation in the presence of nadolol (Example 2)” value ([1]; human coronary microvessels, nadolol) was “insensitive”. For the same compound, the “relaxation in microvessels from mice genetically deficient in beta3-AR” value [8] was “blunted”, the “NO release in the presence of L-NAME” value [9] was 26.5±4.3 nmoles/μg prot and the “NO release in the presence of L-NAME” value ([9]; listed as Nebivolol) was “sensitive to L-Name”. The NO release [9] was 117 nmol/µg protein and the NO release ([9]; listed as Nebivolol) was “evoked a release of NO”.
`CCOC(=O)COc1ccc2c(c1)C[C@@H](NC[C@H](O)c1cccc(Cl)c1)CC2` [SR58611] was tested, and the “new tubes formation compared to untreated controls” value ([4]; aortic rings from C57BI6 mice treated in vitro) was “time-dependent increase in new tubes formation” and the “angiogenic response in beta3 adrenoceptor deficient rings” value [4] was “completely lost”.
